These results are taken from US5948786A, “Piperidinylpyrimidine derivatives” (Sumitomo Pharmaceuticals Company, Limited, priority 1996, dated 1999).

Type in all cases: cell-based
In test [1] the test system is HIV-1 LTR-CAT gene expression in Jurkat cells. Briefly: PMA induced HIV-1 LTR-CAT gene expression in Jurkat cells. The following applies: Homo sapiens, PMA 10 ng/ml, 24 hours. How it is done: (§1) p469, HIV-1 LTR driven CAT and pSV-Tat, Tat-expression vector were kindly provided from Dr. Gary J. Nabel (Nature Vol. 326, 711(1987))
(§2) RPMI 1640 medium (Life Technologies, Grand Island, N.Y., USA) was supplemented with heat-inactivated fetal calf serum (FBS; Sigma, St. Louis, Mo., USA).
(§3) Human T lymphoma cell line, Jurkat, was cultured in medium described above Transfection;
(§4) Introduction of plasmid DNA into cells was carried out according to the method described in Chiang, J. Li et al., Proc. Natl. Acad. Sci. Vol. 92, 5461-5464 (1995). Briefly, the cells were suspended with the medium at 2×10^7 cells/ml followed by addition 1 μg of p469 and 0.5 μg of DEAE-dextran (Sigma). In some experiments the cells were co-transfected with 0.5 μg of pSV-Tat. After 10 minutes incubation at room temperature with occasionally mixing, the cells were pulsed with electroporation apparatus at 140 V. The cells were re-suspended with the fresh medium and cultured for 20 hours at 37° C.
(§5) A compound tested was dissolved in dimethylsulfoxide at 100 mM as a stock solution. The aliquots of the stock solution were kept frozen at -20° C. Jurkat cells transfected with p469 were treated with 10 ng/ml of phorbol 12-myristate 13-acetate (PMA; Sigma) to activate HIV-1-LTR directed CAT gene transcription in the presence of the compound. In the case of cells transfected with p469 and pSV-Tat, they were simply treated with the compound. After the cells were cultured for an additional 24 hours at 37° C., the cells were washed 2 times with phosphate-buffered saline and lysed in 50 mM Tris-HCl plus 15% glycerol with repeated cycles of freeze and thaw. The cell lysates were clarified by centrifugation followed by determination of protein concentration by Bradford method (Bio-Rad, Hercules, Calif., USA). Measurement of a CAT activity in cell lysates was carried out according to a similar method described in Fridovich-Keil J. L. et. al., Cell Growth and Differentiation, Vol. 2, 67-76(1991). Equal amount (30 μg of protein) of cell lysates was incubated at 37° C. with 35 μg of acetyl co-enzyme A (GIBCO/BRL, Grand Island, Mo., USA) and 0.1 μCi of 14C-chloramphenicol (Dupont, NEN Boston, Mass., USA) in […] solution for 2 hours. Acetyl-14C-chloramphenicol was extracted with 9 volumes of ethyl acetate and fractionated on a TLC gel with 1:19 (v/v) in methanol/chloroform. The CAT activity was detected by autoradiography and quantified by an Imaging Densitometer (model GS-700; Bio-Rad).

Test [2] deals with TNF α production from human peripheral blood mononuclear cells (PBMC). The test can be described thus: Inhibitory activity of compound on TNF α production from PBMC. How it is done: TNF α was induced by 10 μg/ml of LPS (E. coli O111B4, DIFCO, Detroit, Mich., USA) the cells were cultured for 18 hours at 37° C. A compound of the present invention was dissolved in DMSO and added to the culture simultaneously with LPS. […] Each well of the plate first was incubated at room temperature with biotinylated anti-mouse TNF α polyclonal antibodies (PharMingen) for 45 minutes, then with peroxidase-conjugated streptavidin (Kirkegaard & Perry Laboratories Inc., Gaitherburg, Md., USA) for 30 minutes. After each incubation, the plate was washed 4 to 8 times with PBS containing 0.2% Tween 20. TMB (Kirkegaard & Perry Laboratories Inc.) was the peroxidase substrate used and, the absorbance of each well was quantified at 450 nm by a microplatereader (Molecular Devices Corp., CA, USA). TNF α levels in the supernatant were quantified with rm-TNF α as the standard. Inhibitory activity of TNF α production was also quantified using human peripheral blood mononuclear cells(PBMC) instead of PEC's. Results are shown in table 9, 10, 11, 12, 13, 14, 15, 16, 17, 18, 19 and 20.

The subject of test [3] is Tat induced HIV-1 LTR-CAT gene expression in Jurkat cells. Briefly: Tat induced HIV-1 LTR-CAT gene expression in Jurkat cells. Conditions: Homo sapiens, Tat (pSV-Tat), 24 hours. How it is done: as §1, §2, §3, §4, §5
Test [4] concerns TNF α production from mouse macrophages. Briefly: Inhibitory activity of compound on TNF α Production from mouse macrophages (LPS-induced PEC's). The following applies: Macrophage, LPS 10 μg/ml, 18 hours. The method in brief: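 Thioglycollate-elicited peritoneal macrophages from female BALB/c mice (adherent, 2×10^5 cells/well) were stimulated with 10 μg/ml LPS plus compound (final DMSO below 0.1%) for 18 h at 37°C. Supernatant TNF α was measured by sandwich ELISA (TMB, 450 nm) against a recombinant mouse TNF α standard.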

Each structure is given as a SMILES string.

As for `COc1ccc(OC)c(Cc2cc(C3CCN(C(=O)c4ccc5c(c4)OCO5)CC3)nc(N)n2)c1` [Example 307], the values for the inhibition at 5 µM in test [1] and in test [3] were 97% and 66%, respectively. Also, in test [2], the inhibition at 30 µM came out at 81%.

As for `Nc1nc(-c2ccc(Cl)cc2)cc(C2CCN(C(=O)c3ccc4c(c3)OCO4)CC2)n1` [Example 150], 5 µM produced 54% inhibition in test [1]. Further, the inhibition at 30 µM was found to be 100% in test [4] and 11% in test [2].

For the compound `COc1cc(Cc2cc(C3CCN(C(=O)c4ccc5c(c4)OCO5)CC3)nc(N)n2)cc(OC)c1OC` [Example 309], at 30 µM the inhibition in test [2] was 65%. For the same compound, the inhibition at 5 µM in test [3] was found to be 62%.

For the compound `Nc1nc(CCc2ccccc2)cc(C2CCN(C(=O)c3ccc4c(c3)OCO4)CC2)n1` [Example 259], the inhibition at 5 µM in test [1] was determined as 25%; in test [3], 51%. Also, testing at 30 µM in test [2] gave an inhibition of 68%.

In turn, `Nc1nc(C2CCN(C(=O)c3ccc4c(c3)OCO4)CC2)c2cc(Cl)ccc2n1` [Example 130] displayed an inhibition at 5 µM in test [1] of 67%. Also, the inhibition at 30 µM in test [4] worked out at 100%; in test [2], 57%.

For `Nc1nc(Cc2ccc(Cl)cc2Cl)cc(C2CCN(C(=O)c3ccc4c(c3)OCO4)CC2)n1` [Example 312], the inhibition at 30 µM in test [2] is 57%. 5 µM produced 65% inhibition in test [3].

In test [2], `Nc1nc(Cc2ccccc2)cc(C2CCN(C(=O)c3ccc4c(c3)OCO4)CC2)n1` [Example 304] came in with an inhibition at 30 µM of 83%. This compound yielded an inhibition at 5 µM in test [3] of 44%.

In turn, `COc1cccc(Cc2cc(C3CCN(C(=O)c4ccc5c(c4)OCO5)CC3)nc(N)n2)c1` [Example 305] gave an inhibition at 30 µM in test [2] of 80%. For the same compound, in test [3], testing at 5 µM gave an inhibition of 72%.

`COc1ccc(Cc2cc(C3CCN(C(=O)c4ccc5c(c4)OCO5)CC3)nc(N)n2)cc1` [Example 210, 2-amino-4-(4-methoxybenzyl)-6-[1-(3,4-methylenedioxybenzoyl)-4-piperidinyl]pyrimidine]: the results for the inhibition at 5 µM in test [1] and in test [3] were 81% and 66%, respectively. Besides, the inhibition at 30 µM was 75% in test [4] and 80% in test [2].

For `COc1ccc(Cc2cc(C3CCN(C(=O)c4ccc5c(c4)OCO5)CC3)nc(N)n2)cc1OC` [Example 306], the inhibition at 5 µM in test [1] came out at 75%; in test [3], 22%. In addition, 30 µM produced 85% inhibition in test [2].

The compound `Nc1nc(-c2ccccc2)cc(C2CCN(C(=O)c3ccc4c(c3)OCO4)CC2)n1` [Example 140] displayed an inhibition at 5 µM in test [1] of 100%. The inhibition at 30 µM stood at 72% in test [4] and 35% in test [2].

As to `Nc1nc(Cc2ccccc2Cl)cc(C2CCN(C(=O)c3ccc4c(c3)OCO4)CC2)n1` [Example 310], the inhibition at 30 µM in test [2] came out at 83%. Further, the inhibition at 5 µM in test [3] was 67%.

As to `Nc1nc(Cc2ccc(Br)cc2)cc(C2CCN(C(=O)c3ccc4c(c3)OCO4)CC2)n1` [Example 303, 2-Amino-4-(4-bromophenylmethyl)-6-[1-(3,4-methylenedioxybenzoyl)-4-piperidinyl]pyrimidine], testing at 30 µM in test [2] gave an inhibition of 92%. Besides, the inhibition at 5 µM in test [3] stood at 65%.

For `COc1ccc2nc(N)nc(C3CCN(C(=O)c4ccc5c(c4)OCO5)CC3)c2c1` [Example 117], the inhibition at 5 µM came to 92% in test [1] and 36% in test [3]. Also, the inhibition at 30 µM in test [4] is 54%; in test [2], 43%.

In turn, `COc1cc(Cc2cc(C3CCN(C(=O)c4ccc5c(c4)OCO5)CC3)nc(N)n2)cc(OC)c1` [Example 308] displayed an inhibition at 30 µM in test [2] of 87%. In test [3], testing at 5 µM gave an inhibition of 70%.

As for `COc1ccc(-c2cc(C3CCN(C(=O)c4ccc5c(c4)OCO5)CC3)nc(N)n2)cc1` [Example 157], 5 µM produced 81% inhibition in test [1]. For the same compound, the inhibition at 30 µM in test [4] worked out at 84%; in test [2], 37%.

Regarding `Nc1nc(Cc2ccc(Cl)c(Cl)c2)cc(C2CCN(C(=O)c3ccc4c(c3)OCO4)CC2)n1` [Example 311], at 30 µM the inhibition in test [2] was 69%. This compound also yielded an inhibition at 5 µM in test [3] of 63%.

With `Nc1nc(C2CCN(C(=O)c3ccc4c(c3)OCO4)CC2)c2ccccc2n1` [Example 65], the inhibition at 5 µM amounted to 94% in test [1] and 81% in test [3]. This compound also yielded an inhibition at 30 µM in test [2] of 46%.

As for `Nc1nc(Cc2c(Cl)cccc2Cl)cc(C2CCN(C(=O)c3ccc4c(c3)OCO4)CC2)n1` [Example 313], testing at 30 µM in test [2] gave an inhibition of 91%. In test [3], testing at 5 µM gave an inhibition of 69%.

Regarding `Nc1nc(Cc2ccc3c(c2)OCO3)cc(C2CCN(C(=O)c3ccc4c(c3)OCO4)CC2)n1` [Example 314], in test [2], 30 µM produced 84% inhibition. Besides, testing at 5 µM in test [3] gave an inhibition of 76%.

Usually inhibition stands for the relative decrease from the control value, in per cent. Higher therefore signals strong suppression.
